Tests used:
[1] = system: E. faecalis ATCC 29212; assay: NCCLS broth microdilution MIC, E. faecalis; format: cell-based; details: organism C = E. faecalis ATCC 29212
Excerpt: (§1) Compounds according to this invention were screened for their in vitro activities against selected species of bacteria and fungi. […]

[2] = system: S. aureus ATCC 13709; assay: NCCLS broth microdilution MIC, S. aureus (MSSA); format: cell-based, Staphylococcus aureus; details: organism E = S. aureus ATCC 13709 (MSSA)
Excerpt: as §1

[3] = system: S. pneumoniae ATCC 49619; assay: NCCLS broth microdilution MIC, S. pneumoniae ATCC 49619; format: cell-based, Streptococcus pneumoniae; details: organism H = S. pneumoniae ATCC 49619
Excerpt: as §1

[4] = system: C. albicans ATCC 38247; assay: Antifungal MIC, C. albicans; format: cell-based, Candida albicans; details: organism B = C. albicans ATCC 38247
Excerpt: as §1

[5] = system: B. cereus ATCC 11778; assay: NCCLS broth microdilution MIC, B. cereus; format: cell-based, Bacillus cereus; details: organism A = B. cereus ATCC 11778
Excerpt: as §1

[6] = system: S. aureus ATCC 27660; assay: NCCLS broth microdilution MIC, S. aureus (MRSA); format: cell-based, Staphylococcus aureus; details: organism F = S. aureus ATCC 27660 (MRSA)
Excerpt: as §1

[7] = Staphylococcus aureus, read-out: Minimum Inhibitory Concentration (MIC)

SMILES | Minimum Inhibitory Concentration (MIC) [1] | Minimum Inhibitory Concentration (MIC) [2] | Minimum Inhibitory Concentration (MIC) [3] | Minimum Inhibitory Concentration (MIC) [4] | Minimum Inhibitory Concentration (MIC) [5] | Minimum Inhibitory Concentration (MIC) [6] | MIC ([1]; Enterococcus faecalis, ATCC29212, read-out: Minimum Inhibitory Concentration (MIC)) [µg/mL] | MIC [2, 7] [µg/mL] | MIC ([3]; Streptococcus pneumoniae, ATCC49619, read-out: Minimum Inhibitory Concentration (MIC)) [µg/mL] | MIC ([4]; Candida albicans, ATCC38247, read-out: Minimum Inhibitory Concentration (MIC)) [µg/mL] | MIC ([5]; Bacillus cereus, ATCC11778, read-out: Minimum Inhibitory Concentration (MIC)) [µg/mL] | MIC [6, 7] [µg/mL]
COCn1cc(NC(=O)c2cc3ccccc3cn2)cc1C(=O)Nc1cc(C(=O)Nc2cc(C(=O)NCCN3CCOCC3)n(C)c2)n(C)c1 [Ib-72] | +++ (+++ = MIC ≦ 4) | +++ (+++ = MIC ≦ 4) | +++ (+++ = MIC ≦ 4) | >32 µg/mL | +++ (+++ = MIC ≦ 4) | +++ (+++ = MIC ≦ 4) | – | – | – | – | – | –
Cn1cc(NC(=O)c2ccc(NC(=O)c3cc(NC(=O)c4cc5ccccc5cn4)cn3C)cc2)cc1C(=O)NCCN1CCCC1 [Ic-10] | +++ (+++ = MIC ≦ 4) | +++ (+++ = MIC ≦ 4) | +++ (+++ = MIC ≦ 4) | >32 µg/mL | +++ (+++ = MIC ≦ 4) | +++ (+++ = MIC ≦ 4) | – | – | – | – | – | –
Cn1cc(NC(=O)c2cc(NC(=O)c3cc4ccccc4cn3)cn2CCCN2CCCCC2)cc1C(=O)Nc1ccc2cnccc2c1 [Ib-90] | +++ (+++ = MIC ≦ 4) | +++ (+++ = MIC ≦ 4) | +++ (+++ = MIC ≦ 4) | + (+ = 12 ≦ MIC ≦ 32) | +++ (+++ = MIC ≦ 4) | +++ (+++ = MIC ≦ 4) | – | – | – | – | – | –
CN(C)CCCNC(=O)c1cc(NC(=O)c2ccc(NC(=O)c3cc(NC(=O)c4cc5ccccc5cn4)cn3C)cc2)cn1C [Ic-15] | >32 µg/mL | +++ (+++ = MIC ≦ 4) | +++ (+++ = MIC ≦ 4) | >32 µg/mL | >32 µg/mL | +++ (+++ = MIC ≦ 4) | – | – | – | – | – | –
Cn1cc(NC(=O)c2cc(NC(=O)c3cc(NC(=O)c4cc5ccccc5cn4)c[nH]3)cn2C)cc1C(=O)NCCN1CCSCC1 [Ib-75] | – | – | – | – | – | – | < 4 | < 4 | < 4 | > 32 | < 4 | < 4
Cn1cc(NC(=O)c2cc(NC(=O)c3cc4ccccc4cn3)cn2CCCN2CCCC2)cc1C(=O)Nc1ccc2cnccc2c1 [Ib-91] | +++ (+++ = MIC ≦ 4) | +++ (+++ = MIC ≦ 4) | +++ (+++ = MIC ≦ 4) | >32 µg/mL | +++ (+++ = MIC ≦ 4) | +++ (+++ = MIC ≦ 4) | – | – | – | – | – | –
CCN(CC)CCNC(=O)c1cc(NC(=O)c2cc(NC(=O)c3cc(NC(=O)c4cc5ccccc5cn4)cn3C)cn2C)sn1 [Ib-53] | +++ (+++ = MIC ≦ 4) | +++ (+++ = MIC ≦ 4) | +++ (+++ = MIC ≦ 4) | >32 µg/mL | +++ (+++ = MIC ≦ 4) | +++ (+++ = MIC ≦ 4) | – | – | – | – | – | –
Cn1cc(NC(=O)c2ccc(NC(=O)c3cc(NC(=O)c4cc5ccccc5cn4)cn3C)cc2)cc1C(=O)NCCN1CCC(O)CC1 [Ic-8] | +++ (+++ = MIC ≦ 4) | +++ (+++ = MIC ≦ 4) | +++ (+++ = MIC ≦ 4) | >32 µg/mL | +++ (+++ = MIC ≦ 4) | +++ (+++ = MIC ≦ 4) | – | – | – | – | – | –
CN(C)CCSCCn1cc(NC(=O)c2cc3ccccc3cn2)cc1C(=O)Nc1cc(C(=O)Nc2cc(C(=O)NCCN3CCOCC3)n(C)c2)n(C)c1 [Ib-79] | +++ (+++ = MIC ≦ 4) | +++ (+++ = MIC ≦ 4) | +++ (+++ = MIC ≦ 4) | >32 µg/mL | +++ (+++ = MIC ≦ 4) | +++ (+++ = MIC ≦ 4) | – | – | – | – | – | –
Cn1cc(NC(=O)c2cc(NC(=O)c3cc(NC(=O)c4cc5ccccc5cn4)c[nH]3)cn2C)cc1C(=O)NCCc1ccccn1 [Ib-69] | +++ (+++ = MIC ≦ 4) | +++ (+++ = MIC ≦ 4) | +++ (+++ = MIC ≦ 4) | >32 µg/mL | +++ (+++ = MIC ≦ 4) | +++ (+++ = MIC ≦ 4) | – | – | – | – | – | –
Cc1cc(NC(=O)c2cc(NC(=O)c3cc(NC(=O)c4cc5ccccc5cn4)cn3C)cn2CCN2CCOCC2)sn1 [Ib-63] | +++ (+++ = MIC ≦ 4) | +++ (+++ = MIC ≦ 4) | +++ (+++ = MIC ≦ 4) | >32 µg/mL | +++ (+++ = MIC ≦ 4) | +++ (+++ = MIC ≦ 4) | – | – | – | – | – | –
CC1CN(CCNC(=O)c2cc(NC(=O)c3ccc(NC(=O)c4cc(NC(=O)c5cc6ccccc6cn5)cn4C)cc3)cn2C)CC(C)O1 (stereo not drawn) [Ic-17] | +++ (+++ = MIC ≦ 4) | +++ (+++ = MIC ≦ 4) | +++ (+++ = MIC ≦ 4) | >32 µg/mL | +++ (+++ = MIC ≦ 4) | +++ (+++ = MIC ≦ 4) | – | – | – | – | – | –
CN(C)CCSCCn1cc(NC(=O)c2cc3ccccc3cn2)cc1C(=O)Nc1cc(C(=O)Nc2ccc3cnccc3c2)n(C)c1 [Ib-73] | +++ (+++ = MIC ≦ 4) | +++ (+++ = MIC ≦ 4) | +++ (+++ = MIC ≦ 4) | +++ (+++ = MIC ≦ 4) | +++ (+++ = MIC ≦ 4) | +++ (+++ = MIC ≦ 4) | – | – | – | – | – | –
Cn1cc(NC(=O)c2cc(NC(=O)c3cc(NC(=O)c4cc5ccccc5cn4)cn3C)c[nH]2)cc1C(=O)NCCCNC1CCCCC1 [Ib-92] | +++ (+++ = MIC ≦ 4) | +++ (+++ = MIC ≦ 4) | +++ (+++ = MIC ≦ 4) | >32 µg/mL | +++ (+++ = MIC ≦ 4) | +++ (+++ = MIC ≦ 4) | – | – | – | – | – | –
Cn1cc(NC(=O)c2cc(NC(=O)c3cc(NC(=O)c4cc5ccccc5cn4)c[nH]3)cn2C)cc1C(=O)NCCN1CCC(F)CC1 [Ib-71] | +++ (+++ = MIC ≦ 4) | +++ (+++ = MIC ≦ 4) | +++ (+++ = MIC ≦ 4) | >32 µg/mL | +++ (+++ = MIC ≦ 4) | +++ (+++ = MIC ≦ 4) | – | – | – | – | – | –
Cn1cc(NC(=O)c2cc(NC(=O)c3cc(NC(=O)c4cc5ccccc5cn4)cn3C)cn2CCN2CCOCC2)cc1C(=O)NCCN1CCOCC1 [Ib-57] | +++ (+++ = MIC ≦ 4) | +++ (+++ = MIC ≦ 4) | +++ (+++ = MIC ≦ 4) | >32 µg/mL | +++ (+++ = MIC ≦ 4) | +++ (+++ = MIC ≦ 4) | – | – | – | – | – | –
CC(=O)[O-].Cc1cc(NC(=O)c2cc(NC(=O)c3cc(NC(=O)c4cc5ccccc5cn4)cn3C)cn2CCC[N+](C)(C)C)sn1 [Ib-74] | >32 µg/mL | >32 µg/mL | >32 µg/mL | >32 µg/mL | >32 µg/mL | >32 µg/mL | – | – | – | – | – | –
